Values quoted from earlier work as cited in US20070269404A1, “Controlling Sugar Feeding Insects” (Westham Ltd., priority 2006, published 2007).

System: birds and mammals
Conditions: Williams et al. 2003

Spinosad
toxicity to birds and mammals: very little toxicity
